# Experimental data published in PMC10688098, “Intrinsic Solubility of Ionizable Compounds from pKa Shift” (ACS Omega, 2023).
# Columns and labels:
# Type in all cases: physicochemical
# [1] = Solubility at near-neutral pH; settings: aqueous buffer
# Experimental: (§1) The compound ICPD47 is sparingly soluble at near-neutral pH. Solubility is approximately equal to or below 100 μM. The solutions exceeding the solubility limit (0.25, 0.5, and 1.0 mM) were prepared by adding 1.5 equiv of NaOH (0.375 0.75, and 1.5 mM, respectively; 0.5 equiv excess), thus shifting the compound to its highly soluble deprotonated negatively charged form. The deprotonated solutions were titrated with […] more concentrated HCl (2.5 mM; 5.0 mM; and 10 mM) containing the same concentration of DMSO as in the analyte solution (2.0% in all solutions).
# [2] = Intrinsic pKa and intrinsic solubility of ICPD47 from pKa shift (spectrophotometric and potentiometric titration, linked ionization-dissolution model); settings: 25 °C, pKa shift model
# Experimental: as §1
# The pH titration was performed with a 250 μL syringe that was filled with the titrant (acid), and the needle was placed into the sample cell filled with 2.5 mL of analyzed solution. A pH microelectrode was also inserted into the same cell. […] The analyzed solution was mixed after each injection using a pipet. The pH was measured potentiometrically using a Mettler Toledo MP220 pH meter with a combined glass InLab Microelectrode. […] The pH measurements were recorded only when the pH measurement instability was less than 0.01 min^–1. […]
# The ICPD47 compound solutions were prepared in the universal buffer of different pH values from 4.5 to 10.5 at every 0.5 pH unit. […] The absorbance was measured with an Agilent 8453 UV–vis spectrophotometer using the same 2.5 mL cuvette as for potentiometric titration. […]
# [3] = Chemical stability in acid and base; settings: pH 2.0 to 12.0
# [4] = Intrinsic pKa and intrinsic solubility from the model applied to literature titration data (Bjerrum plots)
# Excerpt: Since raw data formats were unavailable, we used WebPlotDigitizer to extract data from Bjerrum plots.[28],[29] Additionally, we used the equation for bound hydrogen ions per substance molecule to reverse engineer equivalent titrant added during the titration.[30] According to the model, any protonizable compound exists in three forms, the charged-dissolved form, the uncharged-dissolved form, and the uncharged-nondissolved (aggregated) form. We use the concept of 'the active concentration of an aggregate (precipitate)'. This concentration is mathematically equal to the amount of aggregate divided by volume of solution. This aggregate remains undissolved and is at an equilibrium (thermodynamic) concentration. The uncharged form of the ICPD47 compound exists in two forms, the dissolved form [ROH] and the aggregated form [ROH↓]. Furthermore, the total concentration of the ICPD47 compound, C, is equal to the sum of all three forms of the compound and includes the deprotonated concentration [RO^-]: [drawing 1] 1 Here we assume that the deprotonated form is highly soluble and there is no need to consider the aggregated form of the negatively charged deprotonated compound. […] A is inversely proportional to the intrinsic solubility, S, and is expressed and rearranged to [drawing 7] 7 [drawing 8] […] 12 cannot be expressed as a function pH = f([Hadd^+]), but may be solved numerically.
SMILES,solubility [1] [µM],"solubility ([2]; aqueous buffer, kinetic from dmso stock, aqueous universal buffer / titration with DMSO, read-out: Intrinsic solubility of the uncharged form) [µM]",pKa ([2]; read-out: Intrinsic pKa (model estimate)),Chemical stability in acid and base [3],"pKa ([4]; model fit to literature titration data, value at infinite dilution)","solubility ([4]; water, thermodynamic from solid, model fit to literature titration data (ref 5, 22, 23)) [µM]"
CCOc1ccc(-c2snnc2-c2cc(Cl)c(O)cc2O)cc1 [ICPD47],≤ 100,~75,6.85,chemically stable in acid and base,,
CN(C)CCCOc1nn(Cc2ccccc2)c2ccccc12 [benzydamine],,,,,9.6,270
